{"source": "paper PMC3161034", "about": "(BMC Cancer, 2011)", "test_system": "patients with solid tumors", "assay": "Adverse events graded by CTCAE version 3.0, relatedness by investigator", "assay_type": "in vivo, human", "procedure": "Cohort enrollment could be expanded to ensure that at least 6 evaluable patients were enrolled or in the event of unresolved safety, pharmacokinetic, or other concerns. The overall sample size could be further increased if additional dose cohorts were considered justified based on the results from the dose-escalation portion of the study. For continuous endpoints, the mean, standard error or standard deviation (SD); median; 25th and 75th percentiles; and minimum and maximum were calculated. For discrete data, the frequency and percent distributions were calculated. No formal comparisons between cohorts were performed. The data were analyzed using SAS software version 8.2 (SAS Institute, Cary, NC). […] The safety analysis set included all patients who received at least 1 dose of study therapy.", "key": {"[1]": {"conditions": "motesanib 50 mg QD + gemcitabine + erlotinib 100 mg QD, n = 7"}, "[2]": {"conditions": "motesanib 75 mg BID + gemcitabine + erlotinib 100 mg QD, n = 9"}, "[3]": {"conditions": "motesanib 100 mg QD + erlotinib 150 mg QD, n = 7"}, "[4]": {"conditions": "motesanib 100 mg QD + gemcitabine + erlotinib 100 mg QD, n = 8"}}, "note": "Marks after values point to notes of the source that are not given here."}
{"compound": "CC1(C)CNc2cc(NC(=O)c3cccnc3NCc3ccncc3)ccc21", "note": "[motesanib]", "values": [{"measurement": "Patients with grade ≥ 3 motesanib-related adverse events", "setting": "all motesanib cohorts", "value": "Twenty-three"}, {"measurement": "Grade 5 motesanib-related adverse events", "setting": "human, in vivo", "value": "No grade 5 motesanib-related adverse events occurred"}, {"measurement": "Motesanib-related diarrhea", "setting": "human, in vivo", "value": 19, "unit": "n"}, {"measurement": "Motesanib-related fatigue", "setting": "human, in vivo", "value": 12, "unit": "n"}, {"measurement": "Motesanib-related nausea", "setting": "human, in vivo", "value": 18, "unit": "n"}, {"measurement": "Motesanib-related vomiting", "setting": "human, in vivo", "value": 13, "unit": "n"}, {"measurement": "Patients discontinuing treatment with the drug because of adverse events", "setting": "human, in vivo", "value": 9, "unit": "n"}, {"measurement": "Serious motesanib-related deep vein thrombosis", "setting": "human, in vivo", "value": 2, "unit": "n"}, {"measurement": "Serious motesanib-related diarrhea", "setting": "human, in vivo", "value": 2, "unit": "n"}, {"measurement": "Serious motesanib-related nausea", "setting": "human, in vivo", "value": 5, "unit": "n"}, {"measurement": "Serious motesanib-related pulmonary embolism", "setting": "human, in vivo", "value": 2, "unit": "n"}, {"measurement": "Serious motesanib-related tumor necrosis", "setting": "human, in vivo", "value": 2, "unit": "n"}, {"measurement": "Serious motesanib-related vomiting", "setting": "human, in vivo", "value": 5, "unit": "n"}, {"measurement": "Abnormal liver function test, grade 3 (motesanib-related)", "setting": "[1]", "value": 0, "unit": "n"}, {"measurement": "Adverse events of grade 3, n (motesanib-related)", "setting": "[1]", "value": 0, "unit": "n"}, {"measurement": "Adverse events of grade 4, n (Pulmonary)", "setting": "[1]", "value": 1, "unit": "n"}, {"measurement": "Any adverse event, n (motesanib-related)", "setting": "[1]", "value": 3, "unit": "n"}, {"measurement": "Cardiac toxicity (all grade 3)", "setting": "[1]", "value": 0, "unit": "n"}, {"measurement": "Deep vein thrombosis, grade 3 (motesanib-related)", "setting": "[1]", "value": 0, "unit": "n"}, {"measurement": "Diarrhea, grade 3 (motesanib-related)", "setting": "[1]", "value": 0, "unit": "n"}, {"measurement": "Fatigue, grade 3 (motesanib-related)", "setting": "[1]", "value": 0, "unit": "n"}, {"measurement": "Febrile neutropenia, grade 4 (motesanib-related)", "setting": "[1]", "value": 1, "unit": "n"}, {"measurement": "Gallbladder toxicity", "setting": "[1]", "value": 0, "unit": "n"}, {"measurement": "Gallbladder toxicity, Grade 3", "setting": "[1]", "value": 0, "unit": "n"}, {"measurement": "Hemorrhagic events", "setting": "[1]", "value": 0, "unit": "n"}, {"measurement": "Hemorrhagic events, Grade 3", "setting": "[1]", "value": 0, "unit": "n"}, {"measurement": "Hypertension, highest (worst) grade: Grade 3", "setting": "[1]", "value": 0, "unit": "n"}, {"measurement": "Nausea, grade 3 (motesanib-related)", "setting": "[1]", "value": 0, "unit": "n"}, {"measurement": "Neutropenia, grade 3 (motesanib-related)", "setting": "[1]", "value": 0, "unit": "n"}, {"measurement": "Neutropenia, grade 4 (motesanib-related)", "setting": "[1]", "value": 0, "unit": "n"}, {"measurement": "Pulmonary embolism, grade 4 (motesanib-related)", "setting": "[1]", "value": 0, "unit": "n"}, {"measurement": "Thrombophlebitis (all grade 3)", "setting": "[1]", "value": 0, "unit": "n"}, {"measurement": "Tumor necrosis, grade 3 (motesanib-related)", "setting": "[1]", "value": 0, "unit": "n"}, {"measurement": "Vomiting, grade 3 (motesanib-related)", "setting": "[1]", "value": 0, "unit": "n"}, {"measurement": "Abnormal liver function test, grade 3 (motesanib-related)", "setting": "[2]", "value": 0, "unit": "n"}, {"measurement": "Adverse events of grade 3, n (motesanib-related)", "setting": "[2]", "value": 3, "unit": "n"}, {"measurement": "Adverse events of grade 4, n (Pulmonary)", "setting": "[2]", "value": 1, "unit": "n"}, {"measurement": "Any adverse event, n (motesanib-related)", "setting": "[2]", "value": 7, "unit": "n"}, {"measurement": "Cardiac toxicity (all grade 3)", "setting": "[2]", "value": 0, "unit": "n"}, {"measurement": "Deep vein thrombosis, grade 3 (motesanib-related)", "setting": "[2]", "value": 0, "unit": "n"}, {"measurement": "Diarrhea, grade 3 (motesanib-related)", "setting": "[2]", "value": 0, "unit": "n"}, {"measurement": "Fatigue, grade 3 (motesanib-related)", "setting": "[2]", "value": 0, "unit": "n"}, {"measurement": "Febrile neutropenia, grade 4 (motesanib-related)", "setting": "[2]", "value": 0, "unit": "n"}, {"measurement": "Gallbladder toxicity", "setting": "[2]", "value": 0, "unit": "n"}, {"measurement": "Gallbladder toxicity, Grade 3", "setting": "[2]", "value": 0, "unit": "n"}, {"measurement": "Hemorrhagic events", "setting": "[2]", "value": 0, "unit": "n"}, {"measurement": "Hemorrhagic events, Grade 3", "setting": "[2]", "value": 0, "unit": "n"}, {"measurement": "Hypertension, highest (worst) grade: Grade 3", "setting": "[2]", "value": 0, "unit": "n"}, {"measurement": "Nausea, grade 3 (motesanib-related)", "setting": "[2]", "value": 1, "unit": "n"}, {"measurement": "Neutropenia, grade 3 (motesanib-related)", "setting": "[2]", "value": 0, "unit": "n"}, {"measurement": "Neutropenia, grade 4 (motesanib-related)", "setting": "[2]", "value": 1, "unit": "n"}, {"measurement": "Pulmonary embolism, grade 4 (motesanib-related)", "setting": "[2]", "value": 0, "unit": "n"}, {"measurement": "Thrombophlebitis (all grade 3)", "setting": "[2]", "value": 0, "unit": "n"}, {"measurement": "Tumor necrosis, grade 3 (motesanib-related)", "setting": "[2]", "value": 1, "unit": "n"}, {"measurement": "Vomiting, grade 3 (motesanib-related)", "setting": "[2]", "value": 0, "unit": "n"}, {"measurement": "Abnormal liver function test, grade 3 (motesanib-related)", "setting": "[3]", "value": 0, "unit": "n"}, {"measurement": "Adverse events of grade 3, n (motesanib-related)", "setting": "[3]", "value": 3, "unit": "n"}, {"measurement": "Adverse events of grade 4, n (Pulmonary)", "setting": "[3]", "value": 0, "unit": "n"}, {"measurement": "Any adverse event, n (motesanib-related)", "setting": "[3]", "value": 7, "unit": "n"}, {"measurement": "Cardiac toxicity (all grade 3)", "setting": "[3]", "value": 0, "unit": "n"}, {"measurement": "Deep vein thrombosis, grade 3 (motesanib-related)", "setting": "[3]", "value": 0, "unit": "n"}, {"measurement": "Diarrhea, grade 3 (motesanib-related)", "setting": "[3]", "value": 2, "unit": "n"}, {"measurement": "Fatigue, grade 3 (motesanib-related)", "setting": "[3]", "value": 0, "unit": "n"}, {"measurement": "Febrile neutropenia, grade 4 (motesanib-related)", "setting": "[3]", "value": 0, "unit": "n"}, {"measurement": "Gallbladder toxicity, Grade 3", "setting": "[3]", "value": 0, "unit": "n"}, {"measurement": "Hemorrhagic events, Grade 3", "setting": "[3]", "value": 0, "unit": "n"}, {"measurement": "Hypertension, highest (worst) grade: Grade 3", "setting": "[3]", "value": 0, "unit": "n"}, {"measurement": "Nausea, grade 3 (motesanib-related)", "setting": "[3]", "value": 0, "unit": "n"}, {"measurement": "Neutropenia, grade 3 (motesanib-related)", "setting": "[3]", "value": 1, "unit": "n"}, {"measurement": "Neutropenia, grade 4 (motesanib-related)", "setting": "[3]", "value": 0, "unit": "n"}, {"measurement": "Pulmonary embolism, grade 4 (motesanib-related)", "setting": "[3]", "value": 0, "unit": "n"}, {"measurement": "Thrombophlebitis (all grade 3)", "setting": "[3]", "value": 0, "unit": "n"}, {"measurement": "Tumor necrosis, grade 3 (motesanib-related)", "setting": "[3]", "value": 1, "unit": "n"}, {"measurement": "Vomiting, grade 3 (motesanib-related)", "setting": "[3]", "value": 0, "unit": "n"}, {"measurement": "Hemorrhagic events", "setting": "motesanib 100 mg QD + erlotinib 150 mg QD, n = 7, epistaxis (grade 1)", "value": "1^e n"}, {"measurement": "Gallbladder toxicity", "setting": "motesanib 100 mg QD + erlotinib 150 mg QD, n = 7, gallbladder enlargement (grade 2)", "value": "1^c n"}, {"measurement": "Abnormal liver function test, grade 3 (motesanib-related)", "setting": "[4]", "value": 1, "unit": "n"}, {"measurement": "Adverse events of grade 3, n (motesanib-related)", "setting": "[4]", "value": 3, "unit": "n"}, {"measurement": "Adverse events of grade 4, n (Pulmonary)", "setting": "[4]", "value": 0, "unit": "n"}, {"measurement": "Any adverse event, n (motesanib-related)", "setting": "[4]", "value": 8, "unit": "n"}, {"measurement": "Deep vein thrombosis, grade 3 (motesanib-related)", "setting": "[4]", "value": 0, "unit": "n"}, {"measurement": "Diarrhea, grade 3 (motesanib-related)", "setting": "[4]", "value": 1, "unit": "n"}, {"measurement": "Fatigue, grade 3 (motesanib-related)", "setting": "[4]", "value": 1, "unit": "n"}, {"measurement": "Febrile neutropenia, grade 4 (motesanib-related)", "setting": "[4]", "value": 0, "unit": "n"}, {"measurement": "Gallbladder toxicity", "setting": "[4]", "value": 0, "unit": "n"}, {"measurement": "Gallbladder toxicity, Grade 3", "setting": "[4]", "value": 0, "unit": "n"}, {"measurement": "Hemorrhagic events", "setting": "[4]", "value": 0, "unit": "n"}, {"measurement": "Hemorrhagic events, Grade 3", "setting": "[4]", "value": 0, "unit": "n"}, {"measurement": "Hypertension, highest (worst) grade: Grade 3", "setting": "[4]", "value": 0, "unit": "n"}, {"measurement": "Nausea, grade 3 (motesanib-related)", "setting": "[4]", "value": 0, "unit": "n"}, {"measurement": "Neutropenia, grade 3 (motesanib-related)", "setting": "[4]", "value": 1, "unit": "n"}, {"measurement": "Neutropenia, grade 4 (motesanib-related)", "setting": "[4]", "value": 0, "unit": "n"}, {"measurement": "Pulmonary embolism, grade 4 (motesanib-related)", "setting": "[4]", "value": 0, "unit": "n"}, {"measurement": "Thrombophlebitis (all grade 3)", "setting": "[4]", "value": 0, "unit": "n"}, {"measurement": "Tumor necrosis, grade 3 (motesanib-related)", "setting": "[4]", "value": 0, "unit": "n"}, {"measurement": "Vomiting, grade 3 (motesanib-related)", "setting": "[4]", "value": 1, "unit": "n"}, {"measurement": "Cardiac toxicity (all grade 3)", "setting": "motesanib 100 mg QD + gemcitabine + erlotinib 100 mg QD, n = 8, congestive heart failure and pulmonary edema", "value": "1^f n"}]}
